Test results as given in patent US20030235634A1, “Extraction of non-polar isothiocyanates from plants and dietary supplements containing same” (ACCESS BUSINESS GROUP INTERNATIONAL LLC., priority 2002, published 2003).
Like-named read-outs stand apart in the source and are kept apart here.

Legend:
Solubility in water = experiment: Solubility in water
Method: Garden cress powder, prepared by drying at 45° C. and containing about […] BITC, and watercress powder, prepared by drying at 50° C. and containing about […] PEITC, were mixed in equal parts. From the mixture, 500 mg were added to a 50 mL conical vial to which 10 mL of water was added and the mixture homogenized for 2 minutes. The mixture was extracted twice with 10 mL safflower oil using homogenization at level 6 (Omni 5000 Mixer) for one minute and centrifuged for 3 minutes at 8,000×g. The oil fractions were collected, pooled and the volume brought up to 25 mL.

[1] = Dissolution of purchased BITC and PEITC in safflower oil (how much can be stored in the oil); assay type: physicochemical; conditions: composition in safflower oil (78.91 % volume oil)
Excerpt: BITC and PEITC were purchased from Aldrich (Sigma-Aldrich, Milwaukee, Wis.) and dissolved in safflower oil to determine how much of the non-polar isothiocyanates could be stored in the oil.

SMILES | solubility in water (Solubility in water) | % Volume [1] | ppm (mg/L) [1] | solubility in water (Solubility in water; water, no test described)
S=C=NCCc1ccccc1 [PEITC, phenethyl isothiocyanate] | not soluble in water | 9.59 % Volume | 104,540 ppm (mg/L) | 
S=C=NCc1ccccc1 [BITC, Benzyl isothiocyanate] |  | 11.50 % Volume | 129,430 ppm (mg/L) | not soluble in water
